Test results reported in patent US12091424B2, “Rapamycin derivatives” (NOVARTIS AG, priority 2017, dated 2024).

What was measured:
mTORC1 signaling = assay: MEF TSC1−/− cell-based assay for rapalog potency (pS6); design: species or system Mouse; conditions: Mus musculus, MEF TSC1−/− cells; average from multiple assays
Procedure: Cell-based assay for rapalog potency determination. Rapalog potency was determined using MEF TSC1−/− cell based assay. MEF TSC1−/− cells are Mouse Embryonic Fibroblasts deficient in Tuberous sclerosis protein—TSC1, which negatively regulates mTORC1 signaling and thus display constitutive mTORC1 activation, resulting in phosphorylation (activation) of downstream molecules. This cell-based assay is used to measure inhibition (de-phosphorylation) of S6 and 4EBP1 by rapalogs or other mTOR inhibitors.
MEF TSC1−/− cells were plated on Poly-D-lysine coated 384 well Griener clear bottom plates and incubated overnight at 37° C., 5% CO2. […] Nuclei were visualized with Hoechst (ThermoFisher Scientific #H3570) staining. Cells were imaged (InCell 600) using respective fluorescence channels and the potency of mTOR inhibitors was defined by pS6 IC50 (nM).
In vitro potency of mTOR inhibitors was defined by pS6 IC50 (nM) in MEF TSC1−/− cells.

FKBP51 = FKBP51 (Homo sapiens (Human), UniProt Q13451); assay: SPR assay, binding affinity to FKBP51; conditions: single-cycle kinetics
Procedure: SPR Assay to Determine Binding Affinity to FK506-Binding Proteins (FKBP). N-terminal avi-his6 tagged FKBP fusions to FKBP12, FKBP51 and FKBP52 were expressed in E. coli and purified using standard chromatography. Each protein was subsequently immobilized on a streptavidin chip in a Biacore 8K SPR instrument (GE Healthcare). Using single-cycle kinetics, compound titrations were flowed at 45 uL/min over each surface using 2-minute association and 30-minute dissociation phases in a buffer containing 50 mM Tris pH 7.5/150 mM NaCl/0.01% Tween 20/1 mM DTT/2% DMSO. The data was fit using low molecular weight (LMW) single-cycle kinetics. The equilibrium dissociation constants (KD) are reported.

mTORC1 pathway = assay: Inhibition of mTORC1 pathway in rat liver (p-S6/t-S6 immunoblot); assay type: in vivo
Procedure: Protein extraction and immunoblotting. For protein extraction, snap frozen tissues were lysed in MSD Lysis Buffer (MSD, Rockville, Maryland), supplemented with complete EDTA free protease inhibitor and PhosSTOP phosphatase inhibitor tablets (Roche, Manheim, Germany), and centrifuged at 13,000 g for 20 min at 4° C. The resultant supernatant was used for immunoblotting. Protein was quantified with BCA protein assay (Thermo Scientific, MA). Samples were resolved on 4-20% Criterion™ TGX™ Precast Midi Protein gels (Bio-Rad, CA) and transferred onto nitrocellulose membranes (Bio-Rad, CA) using a Trans Turbo Blot system (Bio-Rad, CA). Immunoblotting was performed with antibodies to p-S6 and t-S6 from Cell Signaling Technologies (all 1:1000 in TBS-T with 5% BSA). The ‘p’ and ‘t’ prefixes signify ‘phosphorylated’ and ‘total’ forms respectively. HRP-conjugated secondary antibodies against rabbit (#7074) were from Cell Signaling Technologies, MA. […] Resultant digital images were converted into a TIFF format and quantified using ImageJ software.
The ability of Example 2 to inhibit mTORC1 pathway in vivo was determined in rats aged 4 months (FIG. 5A-5D).

[1] = system: S6K1 (Thr389) in FKBP12 knock-down 293T cells; assay: S6K1 (Thr389) phosphorylation ELISA in FKBP12 knock-down 293T cells; assay type: cell-based; conditions: 2 hours treatment
[2] = Comparative blood and brain concentrations in rats after oral dosing; assay type: in vivo; conditions: rat; p.o. 3, 10 and 30 mg/kg; 3 h and 24 h
Procedure: Concentrations were determined using HPLC/Mass spectrometry. […] Blood and brain tissues were collected at 3 hours (h) and 24 h following treatment to determine concentrations of the compounds.

in vivo = conditions: male, Sprague Dawley, rat, whole blood

Sequence of FKBP51 (Q13451 whole entry, the tested form may be a part): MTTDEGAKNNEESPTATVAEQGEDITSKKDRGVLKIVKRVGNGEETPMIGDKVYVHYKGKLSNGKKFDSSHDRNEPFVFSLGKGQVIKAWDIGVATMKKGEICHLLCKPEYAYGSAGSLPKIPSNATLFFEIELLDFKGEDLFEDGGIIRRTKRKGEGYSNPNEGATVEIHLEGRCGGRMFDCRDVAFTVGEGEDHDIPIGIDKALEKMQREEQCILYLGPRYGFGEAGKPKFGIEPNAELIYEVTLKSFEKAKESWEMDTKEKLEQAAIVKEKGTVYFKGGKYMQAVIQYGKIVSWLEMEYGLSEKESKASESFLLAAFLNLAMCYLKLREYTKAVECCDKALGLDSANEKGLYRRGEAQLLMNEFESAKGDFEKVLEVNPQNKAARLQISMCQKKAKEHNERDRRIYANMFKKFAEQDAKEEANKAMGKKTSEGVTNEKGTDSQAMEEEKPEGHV

IC50 (mTORC1 signaling): 0.274 nM
Kd (FKBP51): > 10000 nM
blood concentrations compared with RAD001 [2]: higher
brain concentrations compared with RAD001 [2]: higher
clearance (in vivo; iv, 1 mg/kg): 0.54 L/h/kg
half-life (in vivo; iv, 1 mg/kg): 9.9 h
bioavailability (in vivo; oral, 3 mg/kg): 18%
Compound: CO[C@@H]1C[C@H](C[C@@H](C)[C@@H]2CC[C@H](C)/C=C(\C)[C@@H](O)[C@@H](OC)C(=O)[C@H](C)C[C@H](C)/C=C/C=C/C=C(\C)[C@H](N3CCCS3(=O)=O)C[C@@H]3CC[C@@H](C)[C@@](O)(O3)C(=O)C(=O)N3CCCC[C@H]3C(=O)O2)CC[C@H]1O [Example 2, (R)—C16-(1,1-dioxidoisothiazolidin-2-yl)-C32-deoxo-rapamycin]
S6 inactivation in rat livers (mTORC1 pathway; 24 h following dosing with 10 (trend p=0.06) and 30 mg/kg): remained inactivated
de-phosphorylation (inactivation) of S6 in rat livers (mTORC1 pathway; single dose 3, 10 and 30 mg/kg, three hours following dosing, vs vehicle): significant de-phosphorylation
maximum inhibition of S6K1(Thr389) [1]: 40%
